One assay deals with PI3K δ (Homo sapiens (Human), UniProt O00329). Put plainly: PI3-Kinase Promega ADP-Glo Max assay. It counts as biochemical. A general note: In ADP-Glo the light output rises with the ADP produced.
For a further assay, the target named is PI3K α (Homo sapiens (Human), UniProt P42336). The experiment in a line: PI3-Kinase Promega ADP-Glo Max assay. It counts as biochemical.
A further assay addresses PI3K γ (Homo sapiens (Human), UniProt P48736). The experiment in a line: PI3-Kinase Promega ADP-Glo Max assay. It counts as biochemical.
The target of assay [1] is PI3K-γ in RAW264.7 macrophages (Mus musculus (Mouse), UniProt Q9JHG7). The experiment in a line: Raw264.7 p110 γ assay (PI3K-γ selective cellular assay, C5a-stimulated phospho-AKT). It counts as cell-based. Conditions: for pIC50: phospho-AKT, read-out: Raw264.7 p110 γ assay IC50.
From the text: Briefly, serum-starved RAW264.7 cells are stimulated with a known GPCR agonist C5a. […] Cells can be treated with test compounds prior to, simultaneously with, or subsequent to the stimulation by C5a. RAW 264.7 cells respond to the complement component fragment C5a through activation of the C5a receptor, and the C5a receptor activates macrophages and induces cell migration.
The target in another assay is PI3K β (Homo sapiens (Human), UniProt P42338). The experiment in a line: PI3-Kinase Promega ADP-Glo Max assay. In kind it is biochemical.
Sequence of PI3K β (P42338 whole entry): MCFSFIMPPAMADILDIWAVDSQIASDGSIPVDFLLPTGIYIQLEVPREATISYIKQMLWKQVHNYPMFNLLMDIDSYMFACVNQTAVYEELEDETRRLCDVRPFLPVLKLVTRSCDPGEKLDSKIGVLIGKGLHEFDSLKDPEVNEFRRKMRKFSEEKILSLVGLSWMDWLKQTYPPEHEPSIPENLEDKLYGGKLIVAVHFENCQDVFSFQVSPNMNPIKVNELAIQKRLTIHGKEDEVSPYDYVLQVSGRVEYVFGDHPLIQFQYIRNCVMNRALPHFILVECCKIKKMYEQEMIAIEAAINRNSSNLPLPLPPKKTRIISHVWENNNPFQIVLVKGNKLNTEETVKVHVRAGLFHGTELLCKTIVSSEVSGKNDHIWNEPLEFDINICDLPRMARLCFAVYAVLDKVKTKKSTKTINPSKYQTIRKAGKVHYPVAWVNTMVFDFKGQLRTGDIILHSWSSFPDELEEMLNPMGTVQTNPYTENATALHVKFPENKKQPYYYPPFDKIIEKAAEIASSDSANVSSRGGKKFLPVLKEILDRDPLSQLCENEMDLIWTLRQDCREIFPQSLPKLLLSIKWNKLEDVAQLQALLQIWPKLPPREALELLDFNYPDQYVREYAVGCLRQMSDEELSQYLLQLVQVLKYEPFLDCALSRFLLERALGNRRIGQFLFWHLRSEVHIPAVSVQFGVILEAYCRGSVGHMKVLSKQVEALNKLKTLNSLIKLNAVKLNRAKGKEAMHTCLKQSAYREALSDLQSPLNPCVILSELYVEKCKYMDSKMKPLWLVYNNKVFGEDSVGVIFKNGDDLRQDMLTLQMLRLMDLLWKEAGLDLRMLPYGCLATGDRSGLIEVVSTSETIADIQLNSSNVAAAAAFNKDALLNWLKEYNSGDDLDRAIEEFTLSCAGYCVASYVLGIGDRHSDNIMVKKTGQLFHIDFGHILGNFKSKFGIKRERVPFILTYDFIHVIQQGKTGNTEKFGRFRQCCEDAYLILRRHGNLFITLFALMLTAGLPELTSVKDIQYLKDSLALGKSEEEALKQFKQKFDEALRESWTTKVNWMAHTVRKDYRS
Sequence of PI3K β (P27986 whole entry partner): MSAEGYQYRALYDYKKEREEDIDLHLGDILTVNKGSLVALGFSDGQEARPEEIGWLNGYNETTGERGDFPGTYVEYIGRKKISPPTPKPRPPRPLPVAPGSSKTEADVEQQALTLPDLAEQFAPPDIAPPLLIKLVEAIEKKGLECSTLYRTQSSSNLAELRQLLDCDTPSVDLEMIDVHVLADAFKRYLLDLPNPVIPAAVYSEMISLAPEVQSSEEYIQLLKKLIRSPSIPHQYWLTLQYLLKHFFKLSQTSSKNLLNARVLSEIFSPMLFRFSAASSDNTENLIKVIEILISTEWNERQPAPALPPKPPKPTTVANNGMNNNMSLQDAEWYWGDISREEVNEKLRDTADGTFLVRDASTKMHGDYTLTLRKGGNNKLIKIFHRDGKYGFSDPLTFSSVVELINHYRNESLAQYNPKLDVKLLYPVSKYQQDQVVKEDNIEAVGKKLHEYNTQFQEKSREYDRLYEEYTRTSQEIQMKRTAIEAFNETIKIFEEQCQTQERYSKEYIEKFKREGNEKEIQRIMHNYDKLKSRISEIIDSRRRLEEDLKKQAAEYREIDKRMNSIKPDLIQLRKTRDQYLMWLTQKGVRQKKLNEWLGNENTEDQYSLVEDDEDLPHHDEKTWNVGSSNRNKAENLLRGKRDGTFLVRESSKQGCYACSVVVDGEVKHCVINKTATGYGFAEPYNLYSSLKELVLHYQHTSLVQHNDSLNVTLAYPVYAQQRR
For a further assay, the target named is PI3K-δ in RAJI cells (Homo sapiens (Human), UniProt O00329). Put plainly: RAJI p110 δ assay (PI3K-δ selective cellular assay, phospho-AKT). In kind it is cell-based. Conditions: phospho-AKT; read-out: RAJI p110 δ assay IC50.
Sequence of PI3K-δ in RAJI cells (O00329 whole entry): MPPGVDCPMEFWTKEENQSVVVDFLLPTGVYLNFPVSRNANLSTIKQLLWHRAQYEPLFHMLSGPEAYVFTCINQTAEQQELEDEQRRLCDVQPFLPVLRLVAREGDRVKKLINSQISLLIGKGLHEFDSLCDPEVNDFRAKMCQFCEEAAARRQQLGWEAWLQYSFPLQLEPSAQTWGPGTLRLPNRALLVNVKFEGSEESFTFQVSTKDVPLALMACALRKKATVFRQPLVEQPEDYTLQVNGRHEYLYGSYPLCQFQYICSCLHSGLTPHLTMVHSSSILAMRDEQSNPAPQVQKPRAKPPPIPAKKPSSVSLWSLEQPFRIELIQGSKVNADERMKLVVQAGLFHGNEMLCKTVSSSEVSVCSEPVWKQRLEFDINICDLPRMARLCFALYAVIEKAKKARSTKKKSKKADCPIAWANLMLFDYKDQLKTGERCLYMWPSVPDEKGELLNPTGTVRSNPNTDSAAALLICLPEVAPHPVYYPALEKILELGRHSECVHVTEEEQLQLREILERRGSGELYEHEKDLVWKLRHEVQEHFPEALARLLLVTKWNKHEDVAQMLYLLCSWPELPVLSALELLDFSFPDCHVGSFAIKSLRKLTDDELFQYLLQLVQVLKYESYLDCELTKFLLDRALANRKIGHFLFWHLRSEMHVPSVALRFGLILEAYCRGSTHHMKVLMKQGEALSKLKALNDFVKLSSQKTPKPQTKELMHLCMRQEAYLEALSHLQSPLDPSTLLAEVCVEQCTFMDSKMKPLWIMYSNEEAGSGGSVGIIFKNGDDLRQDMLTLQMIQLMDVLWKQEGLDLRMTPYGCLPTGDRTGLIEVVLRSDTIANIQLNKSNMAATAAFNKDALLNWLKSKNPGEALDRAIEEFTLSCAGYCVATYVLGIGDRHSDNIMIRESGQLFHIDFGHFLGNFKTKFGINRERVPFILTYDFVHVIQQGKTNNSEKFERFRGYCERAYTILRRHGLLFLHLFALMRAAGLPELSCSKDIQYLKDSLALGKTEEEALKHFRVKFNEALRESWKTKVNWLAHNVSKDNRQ
Sequence of PI3K-δ in RAJI cells (P27986 whole entry partner): as the sequence (P27986 whole entry partner) above

Each structure is given as a SMILES string. pIC50: −log10 of the molar value.

Sequence of PI3K α (P42336 whole entry): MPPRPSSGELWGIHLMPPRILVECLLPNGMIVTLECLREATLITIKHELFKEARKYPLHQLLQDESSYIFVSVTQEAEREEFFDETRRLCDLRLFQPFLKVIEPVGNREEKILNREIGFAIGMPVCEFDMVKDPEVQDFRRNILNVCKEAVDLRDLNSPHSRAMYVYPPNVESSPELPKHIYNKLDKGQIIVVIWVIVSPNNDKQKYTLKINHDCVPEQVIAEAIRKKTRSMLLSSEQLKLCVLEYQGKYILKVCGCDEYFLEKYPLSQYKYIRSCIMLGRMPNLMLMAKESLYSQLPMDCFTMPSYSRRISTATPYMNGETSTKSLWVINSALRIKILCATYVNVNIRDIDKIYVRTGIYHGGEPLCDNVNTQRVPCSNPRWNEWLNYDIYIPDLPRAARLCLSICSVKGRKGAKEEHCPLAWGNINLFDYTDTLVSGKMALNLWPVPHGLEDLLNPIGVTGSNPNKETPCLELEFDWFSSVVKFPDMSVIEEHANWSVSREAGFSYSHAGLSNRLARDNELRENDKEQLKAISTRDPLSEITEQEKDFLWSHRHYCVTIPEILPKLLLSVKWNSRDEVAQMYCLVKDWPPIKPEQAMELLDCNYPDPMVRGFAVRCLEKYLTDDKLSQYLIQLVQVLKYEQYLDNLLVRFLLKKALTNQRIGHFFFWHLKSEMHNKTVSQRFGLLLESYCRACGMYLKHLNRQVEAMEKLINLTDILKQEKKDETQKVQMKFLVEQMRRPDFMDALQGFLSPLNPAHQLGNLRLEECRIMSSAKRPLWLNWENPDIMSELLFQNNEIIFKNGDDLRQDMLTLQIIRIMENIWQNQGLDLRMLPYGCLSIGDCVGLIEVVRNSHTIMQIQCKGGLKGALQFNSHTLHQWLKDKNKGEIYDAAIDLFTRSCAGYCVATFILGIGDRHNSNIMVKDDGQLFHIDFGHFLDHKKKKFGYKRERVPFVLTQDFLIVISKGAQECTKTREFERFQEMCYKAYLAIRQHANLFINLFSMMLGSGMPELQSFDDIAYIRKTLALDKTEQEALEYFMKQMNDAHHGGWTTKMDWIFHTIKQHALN
Sequence of PI3K α (P27986 whole entry partner): as the sequence (P27986 whole entry partner) above
Sequence of PI3K δ (O00329 whole entry): as the sequence (O00329 whole entry) above
Sequence of PI3K δ (P27986 whole entry partner): as the sequence (P27986 whole entry partner) above
Method for PI3K α: (§1) Promega ADP-Glo Max assay kit (Cat. No. V7002) was utilized to determine IC50 values for α, β, δ and γ isoforms of human Class I PI3 kinases (Millipore). […] Reactions were incubated at room temperature for 2 hours followed by addition of 25 uL of stop solution. After a 40-minute incubation at room temperature, 50 uL of Promega detection mix was added followed by incubation for 1 hour at room temperature. Plates were then read on Envision plate reader in lunimescence mode. Data was converted to % inhibition using the following equation below:
(§2) [formula] where S is the sample luminescence, Pos is a positive control without added PI3K, Neg is the negative control without added compound. Data was then plotted as % inhibition vs compound concentration.
Method for PI3K γ: as §1, §2

The term pIC50 denotes the IC50 on a negative log10 scale, so that one unit is a factor of ten. As to `C[C@H](NC(=O)c1c(N)nn2cccnc12)c1cc2cccc(C#CC3CCNCC3)c2c(=O)n1-c1ccccc1` [Compound 72], the pIC50 on PI3K δ was 5.00 to 5.30; on PI3K α it was 5.00 to 5.30; at PI3K γ, 6.00 to 6.30; in assay [1] it was 5.00 to 7.00; on PI3K β it was 5.00 to 5.30; at PI3K-δ in RAJI cells it was 5.00 to 6.00. For the same compound, the “PI3K δ/PI3K γ IC50 (selectivity)” value on PI3K γ is listed as “X (X = 10 to <50)”. Further, in assay [1], the “RAJIδ/Raw264.7 γ IC50 (selectivity)” value is “W (W = >1 to <10)”.
Regarding `C[C@H](NC(=O)c1c(N)nn2cccnc12)c1cc2cccc(C#Cc3ccnn3C)c2c(=O)n1-c1ccccc1` [Compound 73], the pIC50 on PI3K δ was 5.00 to 5.30; at PI3K α, 5.00 to 5.30; at PI3K γ, 6.30 to 7.00; in assay [1] it was 7.30 to 9.00; against PI3K β, 5.00 to 5.30; at PI3K-δ in RAJI cells it was 6.00 to 6.30. Also, on PI3K γ, the “PI3K δ/PI3K γ IC50 (selectivity)” value is recorded as “X (X = 10 to <50)”. Further, the “RAJIδ/Raw264.7 γ IC50 (selectivity)” value in assay [1] is recorded as “Y (Y = 50 to <850)”.
For the compound `C[C@H](NC(=O)c1c(N)nn2cccnc12)c1cc2cccc(C#CC3CNC3)c2c(=O)n1-c1ccccc1` [Compound 74], the pIC50 was 5.30 to 6.00 against PI3K δ; 5.00 to 5.30 against PI3K α; 6.00 to 6.30 at PI3K γ; 5.00 to 7.00 in assay [1]; 5.00 to 5.30 at PI3K β; 5.00 to 6.00 at PI3K-δ in RAJI cells. The “PI3K δ/PI3K γ IC50 (selectivity)” value at PI3K γ is “W (key: V = 0.1 to 1; W = >1 to <10; X = 10 to <50; Y = 50 to <850)”. Besides, the “RAJIδ/Raw264.7 γ IC50 (selectivity)” value in assay [1] is on record as “W (key: V = 0.1 to 1; W = >1 to <10; X = 10 to <50; Y = 50 to <850)”.
For `Cc1ncsc1C#Cc1cccc2cc([C@H](C)NC(=O)c3c(N)nn4cccnc34)n(-c3ccccc3)c(=O)c12` [Compound 75], the pIC50 was 5.00 to 5.30 against PI3K δ; 5.00 to 5.30 on PI3K α; 5.30 to 6.00 at PI3K γ; 7.30 to 9.00 in assay [1]; 5.00 to 5.30 at PI3K β; 5.00 to 6.00 on PI3K-δ in RAJI cells. The “PI3K δ/PI3K γ IC50 (selectivity)” value at PI3K γ is “W (W = >1 to <10)”. In assay [1], the “RAJIδ/Raw264.7 γ IC50 (selectivity)” value was “Y (Y = 50 to <850)”.
With `Cc1ncc(C#Cc2cccc3cc([C@H](C)NC(=O)c4c(N)nn5cccnc45)n(-c4ccccc4)c(=O)c23)s1` [Compound 76], the pIC50 at PI3K δ was 5.00 to 5.30; at PI3K α it was 5.00 to 5.30; against PI3K γ, 6.30 to 7.00; in assay [1], 7.30 to 9.00; on PI3K β, 5.00 to 5.30; at PI3K-δ in RAJI cells, 6.30 to 7.00. In addition, the “PI3K δ/PI3K γ IC50 (selectivity)” value at PI3K γ is given as “Y (Y = 50 to <850)”. For the same compound, the “RAJIδ/Raw264.7 γ IC50 (selectivity)” value in assay [1] was “X (X = 10 to <50)”.
In the case of `Cc1ccc(C#Cc2cccc3cc([C@H](C)NC(=O)c4c(N)nn5cccnc45)n(-c4ccccc4)c(=O)c23)cn1` [Compound 77], the negative logarithm of the IC50 (pIC50) is 5.00 to 5.30 against PI3K δ; 5.00 to 5.30 against PI3K α; 7.00 to 9.00 against PI3K γ; 7.30 to 9.00 in assay [1]; 5.00 to 5.30 on PI3K β; 6.00 to 6.30 at PI3K-δ in RAJI cells. The “PI3K δ/PI3K γ IC50 (selectivity)” value on PI3K γ is reported as “Y (Y = 50 to <850)”. Further, in assay [1], the “RAJIδ/Raw264.7 γ IC50 (selectivity)” value was “Y (Y = 50 to <850)”.
As for `Cc1scnc1C#Cc1cccc2cc([C@H](C)NC(=O)c3c(N)nn4cccnc34)n(-c3ccccc3)c(=O)c12` [Compound 78], the pIC50 was 5.00 to 5.30 against PI3K δ; 5.00 to 5.30 against PI3K α; 6.30 to 7.00 on PI3K γ; 7.30 to 9.00 in assay [1]; 5.00 to 5.30 against PI3K β; 6.30 to 7.00 on PI3K-δ in RAJI cells. Further, the “PI3K δ/PI3K γ IC50 (selectivity)” value on PI3K γ is given as “X (X = 10 to <50)”. The “RAJIδ/Raw264.7 γ IC50 (selectivity)” value in assay [1] is “X (X = 10 to <50)”.
For the compound `Cc1nc(C)c(C#Cc2cccc3cc([C@H](C)NC(=O)c4c(N)nn5cccnc45)n(-c4ccccc4)c(=O)c23)s1` [Compound 79], the pIC50 against PI3K δ is 5.00 to 5.30; against PI3K α it was 5.00 to 5.30; against PI3K γ it was 6.00 to 6.30; in assay [1], 7.30 to 9.00; at PI3K β it was 5.00 to 5.30; on PI3K-δ in RAJI cells, 5.00 to 6.00. Moreover, the “PI3K δ/PI3K γ IC50 (selectivity)” value on PI3K γ is given as “X (X = 10 to <50)”. Moreover, in assay [1], the “RAJIδ/Raw264.7 γ IC50 (selectivity)” value was “Y (Y = 50 to <850)”.
`C[C@H](NC(=O)c1c(N)nn2cccnc12)c1cc2cccc(C#Cc3cn[nH]c3)c2c(=O)n1-c1ccccc1` [Compound 80]: the pIC50 against PI3K δ is 5.00 to 5.30; on PI3K α, 5.30 to 6.00; on PI3K γ, 7.00 to 9.00; in assay [1], 7.30 to 9.00; at PI3K β, 5.30 to 6.00; on PI3K-δ in RAJI cells, 6.30 to 7.00. Moreover, the “PI3K δ/PI3K γ IC50 (selectivity)” value on PI3K γ is recorded as “Y (key: V = 0.1 to 1; W = >1 to <10; X = 10 to <50; Y = 50 to <850)”. For the same compound, in assay [1], the “RAJIδ/Raw264.7 γ IC50 (selectivity)” value is “Y (key: V = 0.1 to 1; W = >1 to <10; X = 10 to <50; Y = 50 to <850)”.
As for `CC(=O)N1CCC(C#Cc2cccc3cc([C@H](C)NC(=O)c4c(N)nn5cccnc45)n(-c4ccccc4)c(=O)c23)CC1` [Compound 82], the negative logarithm of the IC50 (pIC50) against PI3K δ was 5.00 to 5.30; against PI3K α, 5.00 to 5.30; against PI3K γ, 6.30 to 7.00; in assay [1] it was 7.30 to 9.00; at PI3K β it was 5.00 to 5.30; at PI3K-δ in RAJI cells it was 6.00 to 6.30. Further, the “PI3K δ/PI3K γ IC50 (selectivity)” value at PI3K γ is listed as “X (key: V = 0.1 to 1; W = >1 to <10; X = 10 to <50; Y = 50 to <850)”. For the same compound, in assay [1], the “RAJIδ/Raw264.7 γ IC50 (selectivity)” value is given as “X (key: V = 0.1 to 1; W = >1 to <10; X = 10 to <50; Y = 50 to <850)”.
Take `C[C@H](NC(=O)c1c(N)nn2cccnc12)c1cc2cccc(C#CC3CCN(S(C)(=O)=O)CC3)c2c(=O)n1-c1ccccc1` [Compound 83]: the negative logarithm of the IC50 (pIC50) against PI3K δ is 5.00 to 5.30; against PI3K α, 5.00 to 5.30; on PI3K γ it was 6.00 to 6.30; in assay [1], 7.30 to 9.00; against PI3K β it was 5.00 to 5.30; at PI3K-δ in RAJI cells it was 6.00 to 6.30. In addition, the “PI3K δ/PI3K γ IC50 (selectivity)” value on PI3K γ was “X (key: V = 0.1 to 1; W = >1 to <10; X = 10 to <50; Y = 50 to <850)”. Also, the “RAJIδ/Raw264.7 γ IC50 (selectivity)” value in assay [1] is reported as “X (key: V = 0.1 to 1; W = >1 to <10; X = 10 to <50; Y = 50 to <850)”.
As for `C[C@H](NC(=O)c1c(N)nn2cccnc12)c1cc2cccc(C#CC3CCOC3)c2c(=O)n1-c1ccccc1` (stereo partly drawn) [Compound 84], the pIC50 at PI3K δ was 5.00 to 5.30; against PI3K α it was 5.00 to 5.30; at PI3K γ, 7.00 to 9.00; in assay [1], 7.30 to 9.00; against PI3K β, 5.00 to 5.30; at PI3K-δ in RAJI cells, 6.30 to 7.00. Further, on PI3K γ, the “PI3K δ/PI3K γ IC50 (selectivity)” value was “Y (Y = 50 to <850)”. Besides, the “RAJIδ/Raw264.7 γ IC50 (selectivity)” value in assay [1] was “X (X = 10 to <50)”.
Consider `C[C@H](NC(=O)c1c(N)nn2cccnc12)c1cc2ccc3ccccc3c2c(=O)n1-c1ccccc1` [Compound 89], for which the negative-log IC50 (pIC50) against PI3K δ was 5.00 to 5.30; at PI3K α, 5.00 to 5.30; at PI3K γ it was 6.00 to 6.30; in assay [1], 7.30 to 9.00; on PI3K β it was 5.00 to 5.30; on PI3K-δ in RAJI cells, 5.00 to 6.00. In addition, the “PI3K δ/PI3K γ IC50 (selectivity)” value at PI3K γ is “X (X = 10 to <50)”. Besides, the “RAJIδ/Raw264.7 γ IC50 (selectivity)” value in assay [1] is on record as “Y (Y = 50 to <850)”.
Consider `C[C@H](NC(=O)c1c(N)nn2cccnc12)c1cc2cccc(NC(=O)c3cnn(C)c3)c2c(=O)n1-c1ccccc1` [Compound 90], for which the negative logarithm of the IC50 (pIC50) against PI3K δ was 5.00 to 5.30; against PI3K α, 5.00 to 5.30; on PI3K γ, 5.30 to 6.00; in assay [1], 5.00 to 7.00; on PI3K β it was 5.00 to 5.30; on PI3K-δ in RAJI cells, 5.00 to 6.00. The “PI3K δ/PI3K γ IC50 (selectivity)” value at PI3K γ is on record as “W (key: V = 0.1 to 1; W = >1 to <10; X = 10 to <50; Y = 50 to <850)”. The “RAJIδ/Raw264.7 γ IC50 (selectivity)” value in assay [1] is on record as “X (key: V = 0.1 to 1; W = >1 to <10; X = 10 to <50; Y = 50 to <850)”.
Regarding `C[C@H](NC(=O)c1c(N)nn2cccnc12)c1cc2cccc(CC(=O)c3cnn(C)c3)c2c(=O)n1-c1ccccc1` [Compound 91], the negative-log IC50 (pIC50) on PI3K δ is 5.00 to 5.30; on PI3K α it was 5.00 to 5.30; at PI3K γ it was 6.00 to 6.30; in assay [1], 5.00 to 7.00; against PI3K β, 5.00 to 5.30; on PI3K-δ in RAJI cells, 6.30 to 7.00. At PI3K γ, the “PI3K δ/PI3K γ IC50 (selectivity)” value is “W (W = >1 to <10)”. Besides, the “RAJIδ/Raw264.7 γ IC50 (selectivity)” value in assay [1] was “W (W = >1 to <10)”.
